Legend:
[1] = test system: immobility behavior; assay: Mouse Forced Swim Test (mFST); assay type: in vivo, mice; details: 1 mg/Kg i.v. thirty minutes before swim session
Description: Forced Swim Test (FST) is an animal model used to assess antidepressant compounds in preclinical studies. The FST was performed similar to the method of Porsolt et al. with modifications (Porsolt R D, Bertin A, Jalfre M. Behavioral despair in mice: a primary screening test for antidepressants. Arch Int Pharmacodyn Thér 1977; 229:327-36).
In this experiment, mice are forced to swim in an inescapable cylinder filled with water. Under these conditions, mice will initially try to escape and eventually develop immobility behavior; this behavior is interpreted as a passive stress-coping strategy or depression-like behavior. Swim tanks were positioned inside a box made of plastic. […] The duration of immobility was evaluated during the total 6 min of the test and expressed as duration (sec) of immobility. […]
In order to avoid the risk of obtaining the false positive\negative effects in the FST caused by a possible influence of the tested drugs on the locomotor activity, spontaneous locomotor activity was measured using an animal activity meter Opto-Varimex-4 Auto-Track (Columbus Instruments, USA). […] Spontaneous locomotor activity was evaluated between the 2nd and the 6th min, which corresponds with the time interval analysed in the FST. […]
Drug levels were 215 nM in the plasma. The NR2B receptor occupancy was determined to be 68%.

[2] = target: T1, NR2B-subtype receptors (Mus musculus, UniProt P35438+Q01097); assay: NR2B receptor occupancy ex vivo (3H Ro 25-6981) after intravenous administration; assay type: in vivo, CD-1 mice
T1 construct: from tissue; host or cells: forebrain membrane homogenate of male CD-1 mice
T1 sequence (Q01097 27-1482, other chains not shown): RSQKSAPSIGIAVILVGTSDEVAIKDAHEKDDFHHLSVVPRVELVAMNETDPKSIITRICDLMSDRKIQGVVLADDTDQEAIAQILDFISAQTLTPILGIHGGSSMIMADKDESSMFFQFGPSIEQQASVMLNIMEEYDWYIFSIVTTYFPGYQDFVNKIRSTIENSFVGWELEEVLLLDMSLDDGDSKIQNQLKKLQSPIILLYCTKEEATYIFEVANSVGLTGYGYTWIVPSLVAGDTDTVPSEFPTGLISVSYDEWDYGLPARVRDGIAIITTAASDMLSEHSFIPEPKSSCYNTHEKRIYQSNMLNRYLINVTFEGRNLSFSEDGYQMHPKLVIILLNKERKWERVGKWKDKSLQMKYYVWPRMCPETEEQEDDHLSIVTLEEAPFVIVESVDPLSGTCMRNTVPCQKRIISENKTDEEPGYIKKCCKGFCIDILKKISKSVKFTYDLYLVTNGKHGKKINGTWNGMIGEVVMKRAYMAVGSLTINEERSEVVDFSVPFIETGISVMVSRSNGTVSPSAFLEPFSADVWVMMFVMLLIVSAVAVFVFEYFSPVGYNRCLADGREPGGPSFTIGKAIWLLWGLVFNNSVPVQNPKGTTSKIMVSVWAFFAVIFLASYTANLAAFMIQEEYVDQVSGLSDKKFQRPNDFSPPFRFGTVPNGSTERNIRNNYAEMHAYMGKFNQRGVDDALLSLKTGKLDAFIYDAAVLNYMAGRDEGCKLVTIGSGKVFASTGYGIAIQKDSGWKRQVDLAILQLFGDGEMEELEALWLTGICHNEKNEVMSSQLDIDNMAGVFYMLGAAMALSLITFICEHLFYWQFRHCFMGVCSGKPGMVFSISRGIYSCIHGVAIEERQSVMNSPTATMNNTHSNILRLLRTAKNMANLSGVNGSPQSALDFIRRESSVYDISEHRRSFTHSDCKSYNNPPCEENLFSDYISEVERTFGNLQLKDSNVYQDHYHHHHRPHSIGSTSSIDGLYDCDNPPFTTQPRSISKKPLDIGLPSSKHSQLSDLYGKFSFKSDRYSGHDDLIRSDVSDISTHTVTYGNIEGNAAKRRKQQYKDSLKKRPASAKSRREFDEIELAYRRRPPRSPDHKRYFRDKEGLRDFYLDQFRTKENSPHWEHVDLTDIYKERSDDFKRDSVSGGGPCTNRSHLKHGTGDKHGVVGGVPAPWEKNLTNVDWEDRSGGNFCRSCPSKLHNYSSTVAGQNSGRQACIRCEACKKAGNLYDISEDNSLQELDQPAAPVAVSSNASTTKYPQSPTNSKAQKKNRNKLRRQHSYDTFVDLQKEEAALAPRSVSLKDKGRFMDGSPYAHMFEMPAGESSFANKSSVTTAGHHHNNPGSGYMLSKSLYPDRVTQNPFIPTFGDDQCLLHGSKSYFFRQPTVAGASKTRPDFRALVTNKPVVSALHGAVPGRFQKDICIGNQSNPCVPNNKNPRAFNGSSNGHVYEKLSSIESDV
Description: In this experiment, 8-10 weeks old male CD-1 mice (n=12) were administered intravenously in a vehicle consisting of 10% dimethylacetamide, 40% PEG-400, 30% hydroxypropyl betacyclodextrin, and 30% water with cyclic Prolyl Glycine (0.10 mg: rill, and the forebrains were harvested 15 minutes post-dosing by decapitation. The brain samples were immediately frozen and stored at −80′ C.
On the following day, the dosed brain samples were thawed on ice for 20-30 minutes followed by homogenization using Polytron for 10 seconds in cold homogenization buffer composed of 50 mM KH2PO4 (pH adjusted to 7.4 with KOH), 1 mM EDTA, 0.005% Triton X 100 and protease inhibitor cocktail (Fischer Scientific). The crude homogenates were further homogenized using a Bounce homogenizer (Thomas Scientific) and the homogenized membrane aliquots from all animals were […] and stored at −80° C. until further use. The whole homogenization process was performed on ice.
For determining occupancy, the membrane homogenates were thawed on ice and then needle homogenized using a 25-gauge needle. […] Non-specific binding was determined using 10 μM Ro 25-6981 added to the wells containing membrane homogenates from vehicle-dosed animals. […]

O=C1NCC(=O)N2CCC[C@@H]12 [cPG, cyclic Prolyl Glycine]
immobility time [1]: statistically significant decrease
receptor occupancy at 1 mg/kg ([2]; 1 mg/Kg i.v., at the end of FST): 73%
receptor occupancy at 3 mg/kg ([2]; 3 mg/Kg i.v., forebrains harvested 15 minutes post-dosing): 93%

From patent US12070458B2, “Therapeutic agent composition and method of use, for treatment of mild congnitive impairment, depression, and psychological disorders” (priority 2018, dated 2024)
